From patent US4239744A, “Radioreceptor assay for benzodiazepines in plasma and other biological specimens” (United States of America, priority 1978, dated 1980)

System: binding sites for [^3 H] diazepam (benzodiazepine receptor), rat cerebral cortex synaptosomal membranes
Test: Radioreceptor assay: inhibition of [3H]diazepam binding to rat synaptosomal membranes by drugs dissolved in plasma
Conditions: for plasma concentration that could be reliably measured by inhibition of [3H]diazepam binding: benzodiazepine dissolved in plasma, assayed in triplicate, from standard curve in figure; for potency rank among the benzodiazepines tested in inhibiting [3H]diazepam binding: four benzodiazepines: clonazepam, N-demethyldiazepam, flurazepam
Experimental: Blood samples to be assayed are drawn into heparinized tubes and the plasma then separated therefrom by centrifugation at […]. Two-hundred μl of plasma is then pipetted into microtubes, e.g., Eppendorf Microtubes (Brinkman Instruments, Westbury, N.Y.) and diluted 1:10 with water. Samples are mixed by inversion and the plasma precipitated with 50 μl of perchloric acid. The samples are then vortexed briefly and centrifuged in a microcentrifuge, e.g., an Eppendorf Microfuge (Brinkman Instruments, Westbury, N.Y.), for three minutes. Twenty-five μl of the clear supernatant is withdrawn and added to 375 μl of distilled water in 16×125 mm glass tubes. Assays are thereafter performed at 0°-4° C. as follows:
The incubation is terminated after 15 min with a 5 ml wash of ice-cold […] Tris buffer (2-amino-2-hydroxymethyl-1,3-propanediol) at pH 7.4, and immediately filtered through Whatman GF/B filters in a filtering device, e.g., a Millepore filtering bank (Model 1225, Millipore Corp., Bedford, Mass.) The filters are immediately washed with an additional 5 ml of ice-cold buffer. The filters are airdried and suspended in a scintillation fluor, e.g., in 10 ml "Aquasol" (New England Nuclear, Boston, Mass.) and the radiation measured in a liquid scintillation counter, e.g., a Beckman LS-355 liquid scintillation counter.
Standard curves were constructed by adding known amounts of benzodiazepine to plasma, diluting the plasma (1:5 or 1:10) with water, and proceeding in an identical manner to unknown samples. […] The percent inhibition of specific binding by plasma samples is defined as: [formula] […] The slope and intercept of these lines were determined by least mean squares regression analysis and the benzodiazepine concentrations in unknown plasma samples computed from these values.
The synaptosomal membranes suspension described above is prepared as follows:
(a) homogenize rat brains in 20 volumes of ice-cold 0.32 M sucrose (using a Potter-Elvehjern homogenizer);
(b) centrifuge the resulting suspension obtained in step (a) at 1000×g for 10 minutes;
(c) centrifuge the supernatent obtained in step (b) at 20,000×g for 20 minutes; and
(d) resuspend the pellet obtained in step (c) in 40 volumes of Tris buffer to a final protein concentration of approximately 1 mg/ml.

O=C1CN=C(c2ccccc2Cl)c2cc([N+](=O)[O-])ccc2N1 [Clonazepam, clonazepam]
plasma concentration that could be reliably measured by inhibition of [3H]diazepam binding: 10 ng/mL | potency rank among the benzodiazepines tested in inhibiting [3H]diazepam binding: most potent

O=C1CN=C(c2ccccc2)c2cc(Cl)ccc2N1 [N-demethyldiazepam]
potency in inhibiting [3H]diazepam binding relative to the parent compound diazepam (from standard curves in figure): about 85%

CCN(CC)CCN1C(=O)CN=C(c2ccccc2F)c2cc(Cl)ccc21 [flurazepam]
plasma concentration that could be reliably measured by inhibition of [3H]diazepam binding: approximately 100 ng/ml | potency rank among the benzodiazepines tested in inhibiting [3H]diazepam binding: least potent
